Laboratory results as given in patent EP0547191B1, “PARTICULATE VECTOR HAVING SELECTIVE TROPISM, METHOD OF PREPARATION AND PHARMACEUTICAL COMPOSITION” (BIOVECTOR THERAPEUTICS SA, priority 1991, dated 1992).

Tested on: fibroblastes humains normaux
Assay: Flow cytofluorimetry: cellular incorporation of doxorubicin measured by emitted fluorescence
Format: cell-based
Details: fibroblasts after 48h in lipoprotein-depleted medium
Experimental: Après 48h de culture en milieu délipoprotéiné, les fibroblastes humains normaux sont incubés avec de la doxorubicine sous forme libre ou encapsulée dans des BVSM ou des BVSM-apoB. Après incubation, de 0, à 2h, ils sont lavés, mis en contact avec de la trypsine 0,05% pendant 1min à37°C, repris en suspension dans du milieu de culture et fixés par du paraformaldéhyde. Les suspensions cellulaires obtenues sont analysées à l'aide d'un cytofluorimètre de flux (Becton-Dickinson Fac-scan) et l'incorporation cellulaire de la doxorubicine est mesurée par l'intensité de fluorescence émise. Les témoins fibroblastes avec BVSM et BVSM-apoB sans doxorubicine ne présentent aucune fluoresence.
Les résultats obtenus sont présentés dans le tableau suivant : […]

SMILES: COc1cccc2c1C(=O)c1c(O)c3c(c(O)c1C2=O)C[C@@](O)(C(=O)CO)C[C@@H]3O[C@H]1C[C@H](N)[C@H](O)[C@H](C)O1 [Doxorubicine libre, doxorubicine]
- Intensité de fluorescence émise (Temps d'incubation 0 min): 5
- Intensité de fluorescence émise (Temps d'incubation 10 min): 22
- Intensité de fluorescence émise (Temps d'incubation 30 min): 25
- Intensité de fluorescence émise (Temps d'incubation 60 min): 31
- Intensité de fluorescence émise (Temps d'incubation 120 min): 42
